Consider 19 compounds from patent US20120245184A1 (Aderans Research Institute, Inc., priority 2006, published 2012).

The subject of assay [1] is sonic hedgehog pathway. The assay is described as follows: Human hedgehog reporter assay Daoy-GliLuc (DGL). The format is cell-based. From the text:
(§1) Mouse (TM3: mouse Leydig cells; S12: mouse embryonic mesenchymal cells) and human (Daoy: human medulloblastoma cell; HepM: human embryonic palatal mesenchymal cell) cell lines are used to screen small molecules for their ability to modulate the activity of the sonic hedgehog pathway (Table 1, Table 2, and Table 3). Stable hedgehog pathway reporter cell lines are established by specific antibiotic selection following transfection of a reporter plasmid containing a luciferase gene located directly downstream from the gli promoter. Consequently, any observable changes in cellular luciferase activity may be attributed to changes in sonic hedgehog pathway activity in mouse and human cells, respectively, since gli is the major by-product of this pathway. To calculate activity, we generate an eleven point dose curve for each compound using 1:3 dilutions in 96 well assay plates. Each plate tested also contains low and high control to establish maximal pathway activation so to establish/compare a percentage activation of each tested compound (AMAX) on respective plates.
(§2) Stable hedgehog pathway reporter cell lines are established following specific antibiotic selection following transfection of a reporter plasmid
(§3) In short, typically cells are plated in MicroTiter-plates at 10,000-20,000 cells per well, in growth media (containing 10%-20% FBS). After 48-72 hrs (HGL and DGL respectively) the media in the assay plates is switched to low-serum containing media (0.5% FBS). At that time compounds are added (at 1-5 μM) to the assay plates, in the presence or absence of hedgehog protein (octyl-modified version; 1-5 ng/ml). After another 24 hrs of incubation, the media from the assay plates is discarded and replaced with luciferase assay-mix. Subsequently, plates are incubated at RT for ˜15-30 mins and then read in a luminometer. [note: addition of the Hedgehog protein, although not critical, will sensitize the assay allowing the identification of weak actives].

In assay [2] the test system is sonic hedgehog pathway. The assay is described as follows: Hedgehog reporter assay (gli-luciferase) in S12 cells. The format is cell-based. The settings on record: S12 mouse embryonic mesenchymal cells.
Source text: as §1, with “respective plates. Also we calculate EC50 values, or a concentration where the pathway will be exactly 50% activated, for each tested compound to determine potency. In these cell lines, compounds that register >20% AMAX values are considered active.” for “respective plates.”
as §2, §3

In assay [3] the test system is sonic hedgehog pathway. Put plainly: Hedgehog reporter assay (gli-luciferase) in TM3 cells. The class given is cell-based, mouse. The settings on record: TM3 mouse Leydig cells, gli-luciferase reporter; read-out: TM3 Avg. EC50.
Source text: as §1, §2, §3
A general note: Reporter assays use an easily measured gene product as a stand-in for the process of interest.

The subject of assay [4] is sonic hedgehog pathway. The assay is described as follows: Human hedgehog reporter assay HEPM-GliLuc (HGL). The format is cell-based. Particulars: HepM human embryonic palatal mesenchymal cells, gli-luciferase reporter; read-out: HEPM Avg. EC50.
Source text: as §1, §2, §3

Where [5] appears, read: Daoy human medulloblastoma cells, gli-luciferase reporter, read-out: Human Daoy (Gli-Luc) Avg. EC50.
The mark [6] stands for this setting: Homo sapiens, Daoy, read-out: Human Daoy (Gli-Luc) Avg. EC50 (nM).
[7] abbreviates: Daoy human medulloblastoma cells, gli-luciferase reporter, read-out: Daoy Avg. EC50.

Structures can show the parent of a compound that is named as a salt.

By EC50 is commonly meant the concentration needed to bring the measured effect to its halfway point. `CN[C@H]1CC[C@H](N(Cc2cc(-c3ccc(F)nc3)ccc2OC)C(=O)c2sc3cccc(F)c3c2Cl)CC1` [Compound 382, 3-Chloro-4-fluoro-benzo[b]thiophene-2-carboxylic acid[5-(6-fluoro-pyridin-3-yl)-2-methoxy-benzyl]-(4-methylamino-cyclohexyl)-amide]: the EC50 in the assay with sonic hedgehog pathway [1] (setting [5]) and in the assay with sonic hedgehog pathway [2] (read-out: Mouse S12 Avg. EC50) was below 50 nM in each case.
Take `CN[C@H]1CC[C@H](N(Cc2cc(-c3cncc(F)c3)ccc2OC)C(=O)c2sc3c(F)ccc(F)c3c2Cl)CC1` [Compound 380, 3-Chloro-4,7-difluoro-benzo[b]thiophene-2-carboxylic acid[5-(5-fluoro-pyridin-3-yl)-2-methoxy-benzyl]-(4-methylamino-cyclohexyl)-amide]: the EC50 in the assay on sonic hedgehog pathway [1] (setting [5]) and with sonic hedgehog pathway [2] (read-out: Mouse S12 Avg. EC50) was below 50 nM in each case.
Regarding `CCc1ccc(-c2ccncc2)cc1CN(C(=O)C1=C(Cl)c2c(F)ccc(F)c2C1)[C@H]1CC[C@@H](NC)CC1` [Compound 395, 3-Chloro-4,7-difluoro-benzo[b]thiophene-2-carboxylic acid(2-ethyl-5-pyridin-4-yl-benzyl)-(4-methylamino-cyclohexyl)-amide dihydrochloride], the EC50 in the assay on sonic hedgehog pathway [1] (setting [5]) and with sonic hedgehog pathway [2] (read-out: Mouse S12 Avg. EC50) was 50 to 250 nM throughout.
As to `CNC1CCC(N(Cc2cc(-c3ccc(S(=O)(=O)N(C)C)cc3)ccc2OC)C(=O)c2sc3c(F)ccc(F)c3c2Cl)CC1` (stereo not shown) [Compound 391, 3-Chloro-4,7-difluoro-benzo[b]thiophene-2-carboxylic acid (4′-dimethylsulfamoyl-4-methoxy-biphenyl-3-ylmethyl)-(4-methylamino-cyclohexyl)-amide trifluoroacetate], the EC50 in the assay on sonic hedgehog pathway [1] (setting [6]) and with sonic hedgehog pathway [2] (read-out: Mouse S12 Avg. EC50) was below 50 nM throughout.
In the case of `CNC1CCC(N(Cc2cc(-c3ccncc3)ccc2C)C(=O)c2sc3c(F)ccc(F)c3c2Cl)CC1` (stereo not shown) [Compound 392, 3-Chloro-4,7-difluoro-benzo[b]thiophene-2-carboxylic acid (4-methylamino-cyclohexyl)-(2-methyl-5-pyridin-4-yl-benzyl)-amide bis(trifluoroacetate)], the EC50 with sonic hedgehog pathway [1] (setting [5]) and in the assay on sonic hedgehog pathway [2] (read-out: Mouse S12 Avg. EC50) was below 50 nM in each case.
Consider `CN[C@H]1CC[C@@H](N(Cc2cc(OC)cc(-c3ccncc3)c2)C(=O)C2=C(Cl)c3c(F)ccc(F)c3C2)CC1` [Compound 394, 3-Chloro-4,7-difluoro-benzo[b]thiophene-2-carboxylic acid(3-methoxy-5-pyridin-4-yl-benzyl)-(4-methylamino-cyclohexyl)-amide bis(trifluoroacetate)], for which the EC50 in the assay on sonic hedgehog pathway [1] (setting [5]) and in the assay with sonic hedgehog pathway [2] (read-out: Mouse S12 Avg. EC50) was below 50 nM each time.
For `COc1ccc(-c2cncc(F)c2)cc1CN(C(=O)c1sc2c(F)ccc(F)c2c1Cl)[C@H]1CC[C@H](N)CC1` [Compound 416], the EC50 in the assay with sonic hedgehog pathway [1] (setting [7]) was 50 to 250 nM; in the assay with sonic hedgehog pathway [2] (read-out: S12 Avg. EC50), below 50 nM.
In the case of `CCS(=O)(=O)c1ccc(-c2ccc(OC)c(CN(C(=O)c3sc4c(F)ccc(F)c4c3Cl)C3CCC(NC)CC3)c2)cc1` (stereo not shown) [Compound 389, 3-Chloro-4,7-difluoro-benzo[b]thiophene-2-carboxylic acid (4′-ethanesulfonyl-4-methoxy-biphenyl-3-ylmethyl)-(4-methylamino-cyclohexyl)-amide hydrochloride], the concentration for a half-maximal effect (EC50) in the assay with sonic hedgehog pathway [1] (setting [6]) and in the assay with sonic hedgehog pathway [2] (read-out: Mouse S12 Avg. EC50) was below 50 nM throughout.
Consider `CNC1CCC(N(Cc2cc(-c3ccnc(F)c3)ccc2OC)C(=O)c2sc3c(F)ccc(F)c3c2Cl)CC1` (stereo not shown) [Compound 384, 3-Chloro-4,7-difluoro-benzo[b]thiophene-2-carboxylic acid[5-(2-fluoro-pyridin-4-yl)-2-methoxy-benzyl]-(4-methylamino-cyclohexyl)-amide], for which the EC50 in the assay with sonic hedgehog pathway [1] (setting [5]) and with sonic hedgehog pathway [2] (read-out: Mouse S12 Avg. EC50) was below 50 nM in each case.
For `CNC1CCC(N(Cc2cc(-c3ccnc(F)c3)ccc2OC)C(=O)c2sc3cccc(F)c3c2Cl)CC1` (stereo not shown) [Compound 385, 3-Chloro-4-fluoro-benzo[b]thiophene-2-carboxylic acid[5-(2-fluoro-pyridin-4-yl)-2-methoxy-benzyl]-(4-methylamino-cyclohexyl)-amide], the EC50 in the assay on sonic hedgehog pathway [1] (setting [5]) and in the assay on sonic hedgehog pathway [2] (read-out: Mouse S12 Avg. EC50) was below 50 nM in each case.
On to `CN[C@H]1CC[C@H](N(Cc2cc(-c3cccnc3F)ccc2OC)C(=O)c2sc3cccc(F)c3c2Cl)CC1` [Compound 381], for which the EC50 in the assay on sonic hedgehog pathway [1] (setting [5]) and with sonic hedgehog pathway [2] (read-out: Mouse S12 Avg. EC50) was below 50 nM in each case.
On to `CNC1CCC(N(Cc2cc(-c3cnccn3)ccc2OC)C(=O)c2sc3c(F)ccc(F)c3c2Cl)CC1` (stereo not shown) [Compound 344 (R14), 3-Chloro-4,7-difluoro-benzo[b]thiophene-2-carboxylic acid(2-methoxy-5-pyrazin-2-yl-benzyl)-(4-methylamino-cyclohexyl)-amide dihydrochloride], for which the EC50 in the assay with sonic hedgehog pathway [1] (setting [7]), in the assay on sonic hedgehog pathway [3] and with sonic hedgehog pathway [4] was below 50 nM each time.
Consider `CN[C@H]1CC[C@@H](N(Cc2cc(-c3ccnc(C)c3)ccc2OC)C(=O)C2=C(Cl)c3c(F)ccc(C)c3C2)CC1` [Compound 345, 3-Chloro-4,7-difluoro-benzo[b]thiophene-2-carboxylic acid[2-methoxy-5-(2-methyl-pyridin-4-yl)-benzyl]-(4-methylamino-cyclohexyl)-amide dihydrochloride], for which the EC50 in the assay on sonic hedgehog pathway [1] (setting [7]), with sonic hedgehog pathway [3] and in the assay on sonic hedgehog pathway [4] was below 50 nM each time.
`CNC1CCC(N(Cc2cc(-c3ccc(C(=O)C(F)(F)F)cc3)ccc2OC)C(=O)c2sc3c(F)ccc(F)c3c2Cl)CC1` (stereo not shown) [Compound 349, 3-Chloro-4,7-difluoro-benzo[b]thiophene-2-carboxylic acid[4-methoxy-4′-(2,2,2-trifluoro-acetyl)-biphenyl-3-ylmethyl]-(4-methylamino-cyclohexyl)-amide trifluoroacetate]: the EC50 in the assay with sonic hedgehog pathway [1] (setting [7]), in the assay with sonic hedgehog pathway [3] and in the assay with sonic hedgehog pathway [4] was below 50 nM each time.
As for `CNC1CCC(N(Cc2cc(-c3cnccn3)ccc2OC)C(=O)c2sc3ccccc3c2Cl)CC1` (stereo not shown) [Compound 330 (R22), 3-Chloro-benzo[b]thiophene-2-carboxylic acid (2-methoxy-5-pyrazin-2-yl-benzyl)-(4-methylamino-cyclohexyl)-amide bis(trifluoroacetate)], the EC50 in the assay with sonic hedgehog pathway [1] (setting [7]) is below 50 nM; in the assay on sonic hedgehog pathway [3], 50 to 250 nM; in the assay on sonic hedgehog pathway [4], 50 to 250 nM.
Turning to `CNC(=O)c1cc(-c2ccc(OC)c(CN(C(=O)c3sc4c(F)ccc(F)c4c3Cl)C3CCC(NC)CC3)c2)ccn1` (stereo not shown) [356 (R21), 4-(3-{[(3-Chloro-4,7-difluoro-benzo[b]thiophene-2-carbonyl)-(4-methylamino-cyclohexyl)-amino]-methyl}-4-methoxy-phenyl)-pyridine-2-carboxylic acid methylamide dihydrochloride], the EC50 with sonic hedgehog pathway [1] (setting [7]), in the assay with sonic hedgehog pathway [3] and in the assay on sonic hedgehog pathway [4] was below 50 nM each time.
Consider `CCOc1ccc(-c2cccc(C#N)c2)cc1CN(C(=O)c1sc2ccccc2c1Cl)C1CCC(NC)CC1` (stereo not shown) [Compound 328, 3-Chloro-benzo[b]thiophene-2-carboxylic acid (3′-cyano-4-ethoxy-biphenyl-3-ylmethyl)-(4-methylamino-cyclohexyl)-amide hydrochloride], for which the EC50 in the assay on sonic hedgehog pathway [1] (setting [7]) is below 50 nM; in the assay on sonic hedgehog pathway [3], below 50 nM; with sonic hedgehog pathway [4], 50 to 250 nM.
As to `CNC1CCC(N(Cc2cc(-c3ccc(OC)cc3)ccc2OC)C(=O)c2sc3ccccc3c2Cl)CC1` (stereo not shown) [Compound 305, 3-Chloro-benzo[b]thiophene-2-carboxylic acid (4,4′-dimethoxy-biphenyl-3-ylmethyl)-(4-methylamino-cyclohexyl)-amide hydrochloride], the results for the EC50 in the assay with sonic hedgehog pathway [1] (setting [7]), in the assay with sonic hedgehog pathway [3] and in the assay with sonic hedgehog pathway [4] were below 50 nM, below 50 nM and 250 to 1000 nM, respectively.
For the compound `CCOc1ccc(-c2cnc(N)nc2)cc1CN(C(=O)c1sc2ccccc2c1Cl)[C@H]1CC[C@H](NC)CC1` [Compound 325, 3-Chloro-benzo[b]thiophene-2-carboxylic acid[5-(2-amino-pyrimidin-5-yl)-2-ethoxy-benzyl]-(4-methylamino-cyclohexyl)-amide dihydrochloride], the EC50 in the assay with sonic hedgehog pathway [1] (setting [7]) was below 50 nM; in the assay with sonic hedgehog pathway [3] it was 250 to 1000 nM; in the assay with sonic hedgehog pathway [4] it was 50 to 250 nM.
